In US6926892B2, “Protecting plants from oomycete pathogens by treatment with compositions containing serratamolide and oocydin a from Serratia marcescens” (HMV Corporation, priority 2000, dated 2005):
Values after ≈ are worked out from the molar mass of the structure shown.

Legend:
[1] = test system: Oomycetes; conditions: from Strobel et al. 1999 / U.S. Ser. No. 09/858,871; cited from earlier work
[2] = test system: Oomycetes; experiment: Minimum inhibitory concentration tests against a number of plant fungal pathogens (summary); type: cell-based; conditions: e.g., P. cactorum, P. capsici, P. ultimum
Experimental: (§1) 900 μl of potato dextrose broth was placed into the wells of a sterile 24-well culture plate. Serratamolide (in methanol) was added to the wells in concentrations of 0, 3.3, 10, 33 and 100 μg/ml. 20 μl methanol was added to one row to serve as a control. Fungal cultures to be tested were grown on PDA plates for three to five days. Pieces of agar containing the cultures were transferred to sterile microfuge tubes containing 0.5 ml sterile distilled water and broken up using a sterile Teflon pestle. 100 μl of PD broth containing the mycelia was added to each well, and growth inhibition was monitored over 3 days. At the end of 3 days cultures were transferred to a ground glass homogenizer, gently broken up, diluted in distilled water and the optical density measured using a Spectronic 20 spectrophotometer at 660 nm. The minimum inhibitory concentration was determined as the concentration of serratamolide compound needed to effect a 10% reduction in growth.

[3] = test system: Pythium ultimum; experiment: Minimum inhibitory concentration in potato dextrose broth, 24-well plate; type: cell-based; conditions: 3 days, MIC = concentration needed to effect a 10% reduction in growth (OD 660 nm)
Experimental: as §1

[4] = test system: Phytophthora capsici; experiment: as above; type: cell-based; conditions: 3 days, MIC = concentration needed to effect a 10% reduction in growth (OD 660 nm)
Experimental: as §1

[5] = test system: Phytophthora cactorum; experiment: as above; type: cell-based; conditions: 3 days, MIC = concentration needed to effect a 10% reduction in growth (OD 660 nm)
Experimental: as §1

[6] = test system: Botrytis cinera; experiment: as above; type: cell-based; conditions: 3 days, MIC = concentration needed to effect a 10% reduction in growth (OD 660 nm)
Experimental: as §1

[7] = test system: Rhizoctonia solani; experiment: as above; type: cell-based; conditions: 3 days, MIC = concentration needed to effect a 10% reduction in growth (OD 660 nm)
Experimental: as §1

[8] = test system: Phytophtora parasitica; experiment: as above; type: cell-based; conditions: 3 days, MIC = concentration needed to effect a 10% reduction in growth (OD 660 nm)
Experimental: as §1

Structure (SMILES)	Activity against Oomycetes, MICs relative to metalaxyl [1]	Spectrum of activity among plant pathogens tested [2]	Minimum inhibitory concentration [3] [µg/mL]	Minimum inhibitory concentration [4] [µg/mL]	Minimum inhibitory concentration [5] [µg/mL]	Minimum inhibitory concentration [6] [µg/mL]	Minimum inhibitory concentration [7] [µg/mL]	Minimum inhibitory concentration [8] [µg/mL]
CC(=O)OC1CC(=O)O[C@H]2C[C@H](CC/C(Cl)=C\C/C=C\1C)O[C@H]2[C@@H](O)/C=C(\C)CC(=O)O (some centres unmarked) [oocydin A]	selective lethal activity against Oomycetes at MICs lower or similar to those noted for metalaxyl							
CCCCCCC[C@@H]1CC(=O)N[C@@H](CO)C(=O)O[C@H](CCCCCCC)CC(=O)N[C@@H](CO)C(=O)O1 [serratamolide]		active against Oomycetes only	6 (≈ 11.7 µM)	10 (≈ 19.4 µM)	60 (≈ 117 µM)	>100	>100	6 (≈ 11.7 µM)
